Results taken from US11331294B2, “Benzoquinone derivative E3330 in combination with chemotherapeutic agents for the treatment of bladder cancer” (Indiana University Research and Technology Corporation, priority 2007, dated 2022).

Columns and labels:
NFκB = assay: NFκB-driven luciferase reporter; assay type: cell-based, human; settings: T24 and UC3 cells induced with TNFa, IC50 concentration, 24 h
Experimental: (§1) FIGS. 36A-36H. […] In cytokine-induced T24 and UC3 cells NFκB-driven luciferase (FIG. 36A), STAT3-driven luciferase (FIG. 36B), and AP-1-driven luciferase (FIG. 36C) were quantified and normalized via Renilla following treatment with the corresponding cell growth-inhibitory IC50 concentrations. T24 cells were treated with APX2009 (8.5 μM) and APX2014 (6.5 μM), and UC3 cells were treated with APX2009 (6.1 μM) and APX2014 (4.6 μM) for 24 h. (*-p<0.05 APX treated vs vehicle, n=4). […] In the panels of FIGS. 36F & 36G, co-expression of survivin and APE1/Ref-1 was analyzed in superficial (FIG. 36F) and invasive human bladder tumors (FIG. 36G) in patients, and found nearly universal overlap of positivity in both in human samples. This was also true in cisplatin-refractory patients from the tissue microarray specimens (FIG. 36H).
The transcriptional activity of NFκB, STAT3, and AP-1 is under redox control by APE1/Ref-1. Therefore, NFκB, STAT3, or AP-1 transcriptional activity was quantified following treatment with APE1/Ref-1 redox inhibitors (FIGS. 36A-36C).

UC3 cells = assay: Methylene blue cell growth assay UC3; assay type: cell-based; settings: Homo sapiens, read-out: cell growth-inhibitory IC50
Experimental: (§2) FIGS. 31A & 31B. Treatment with APE1/Ref-1 inhibitors potently blocks bladder cancer cell proliferation and activated Caspase 3/7. […] The IC50 values for FIG. 31A were determined using the methylene blue assay, n=4. […] T24 and UC3 cells were treated with APX2009 and APX2014 at the IC50 and IC90 and monitored over time for activation of capsase 3/7 by an increase in red fluorescence. Time course graphs are shown in FIG. 31B and representative images at 48 hr are shown in FIG. 32A (described more fully below), n=3-4.
as §1, with “36H). […]” for “36H).”

[1] = system: SW780, T24, UC3 cell lines; assay: Methylene blue cell growth assay, bladder cancer cell panel; assay type: cell-based, human
Experimental: as §2
Bladder cancer cell proliferation was inhibited and apoptosis was induced by potent, selective redox inhibitors of APE1/Ref-1.

OVCAR-3 tumor cells = assay: MTS cell survival assay OVCAR-3; assay type: cell-based, human; settings: about 24 or 72 h
Experimental: Decreased cancer cell survival. MCF-7 or OVCAR-3 cells (about 2-4,000) were aliquoted into each well of a 96-well plate in triplicate and allowed to adhere overnight. APX3330 (RN3-3) was added to the cultures. After about 24 or 72 h, about 0.05 mg/mL 3-(4-5-Dimethylthiazol-2-yl)-5-(3-carboxymethoxyphenyl)-2-(4-sulfophenyl)-2H-tetrazolium salt (MTS) reagent was added to each well and incubated at about 37° C. for about 4 h followed by absorbance measurement at 490 nm. The values were standardized to wells containing media alone. […] Similar effects can be seen in multiple myeloma, prostate, non-small cell lung carcinoma, colon, and glioma derived cells.

[2] = system: rat dorsal root ganglion cells; assay: MTS cell viability assay of dorsal root ganglion cells; assay type: cell-based
Experimental: APX3330 in combination with chemotherapeutic Cisplatin. […] There was no effect of APX3330 (RN3-3) on the post-mitotic DRG cells, indicative of a non-toxic effect of APX3330 (RN3-3) on non-dividing cells.
DRG cell cultures and treatments were performed similar to previously published procedures using just APX3330 alone (DNA Repair Volume 4, Issue 3, 2 Mar. 2005, pp […]).

[3] = system: subretinal neovascularization (SNV) in vldlr-/- retina; assay: SNV in vldlr-/- knockout mice assay; assay type: in vivo; settings: single intravitreal injection, one week after treatment
Experimental: SNV in vldlr−/− knockout mice assay. […] Experiments were carried out in very-low-density lipoprotein receptor (vldr) knockout mice to determine the effect of APX3330 on inhibition of SNV development in the vldlr−/− mutant. Each animal received a single intravitreal injection of 1 μl volume of BSS as a vehicle control and the fellow eye received 1 μl of […] APX3330. The final concentration of APX3330 was equivalent to approximately 20 μM in the retina. Quantitative measurement of SNV was carried out one week after the treatment in the whole mount retina after lectin-FITC staining. […] The apparent increase of SNV after antibody injection could be due to foreign protein triggered immune response which has been reported before (Tator et al., 2008). APX3330 reduced the number of SNV at a statistically significant level (p<0.01 in paired t-test). […] The Ape1/Ref-1 inhibitor offers a new approach to control angiogenesis for advanced macular degeneration (AMD) treatment.

[4] = Preliminary in vivo safety in mice (body weight); settings: male mice, under 50 mg/kg
SF767 glioma cells = assay: Glioma cell migration (scratch) assay; assay type: cell-based; settings: 100 μM, 48 h
Experimental: Glioma Cell Migration Assay. APX3330 was tested to determine if it would inhibit the migration ability of SF767 glioma cells. In order to do this, we plated 1.5×10^6 SF767 cells in a 60 mm tissue culture dish and allowed them to attach overnight and form a confluent monolayer. A scratch or wound was made across the plate using a 200 μL pipette tip as described previously (Liang 2007). The cells were then rinsed to remove floating cells and media contain 25, 50, 75 or 100 μM APX3330 or the appropriate vehicle control, DMSO. The drug-containing media was removed after 24 h and fresh media was added Images were taken at three marked places along the scratch at 0, 24, 36 and 48 h after the drug was added. Migration was quantified in ten uniform places for each image taken using Spot Software (Diagnostic Instruments, Sterling Heights, Mich.) to measure the distance in microns between the leading edges of the scratch. Each set of data, a total of thirty for each data point, was normalized to the migration of the vehicle control at 0 h and used to determine standard deviation.

[5] = system: retinal vascular endothelial cells (RVEC); assay: MTS proliferation assay of retinal endothelial cells; assay type: cell-based, mouse
Experimental: Inhibition of endothelial cell proliferation. […] Young adult mouse retinal tissues were dissected out and digested. Cells were plated in 24 well plates and grown to confluence, then seeded to 96 well plates for assay. Three days after seeding, the total number of cells was assayed by MTS measurement (Promega). The proliferation rate was calculated according to manufacturer's instructions. Proliferations of RECs from different groups were compared for statistical significance. APX3330 (RN3-3) blocked REC proliferation indicative of anti-blood vessel formation effects. (FIG. 10)
APX3330 10-100 μM decreased cell proliferation of retinal vascular endothelial cells (RVEC) (FIG. 11). In basal media, APX3330 inhibited REVC cell proliferation at all 4 concentrations tested, 10 μM-57%, 25 μM-93% (p<0.01).

Structure (SMILES) | reduction of NFκB-driven luciferase activity (NFκB) | IC50 (UC3 cells) | fold lower IC50 than APX3330 [1] | killing of OVCAR-3 tumor cells (OVCAR-3 tumor cells) | survival of dorsal root ganglion cells ([2]; as high as about 120 μM, up to about 72 hours) | protection against cisplatin neurotoxicity ([2]; with cisplatin) | individuals with reduced number of SNV in treated eye [3] | reduction of number of SNV [3] | mouse toxicity [4] | inhibition of migration compared to vehicle control (SF767 glioma cells) | inhibition at 10 µM ([5]; Mus musculus, Endothelial cell, 10 μM, basal media) | inhibition at 25 µM ([5]; Mus musculus, Endothelial cell, 25 μM, basal media) | retinal endothelial cell proliferation ([5]; about 10-100 μM, with or without bFGF)
CCC/C(=C\C1=C(OC)C(=O)c2ccccc2C1=O)C(=O)N(CC)CC [APX2009, [(2E)-2-[(3-methoxy-1,4-dioxo-1,4-dihydronaphthalen-2-yl)methylidene]-N,N-diethylpentanamide]] | 2 fold | 6.1 µM | 7 fold | – | – | – | – | – | – | – | – | – | –
CCCCCCCCC/C(=C\C1=C(C)C(=O)C(OC)=C(OC)C1=O)C(=O)O [APX3330] | – | – | – | dose dependently killed | did not impair the survival | provided protection against the neuro-toxic effects of the chemotherapeutic cisplatin | 17/20 | ~30% | No mouse toxicity was observed | 4.0 fold | 57% | 93% | decreased retinal endothelial cell proliferation
